# Experimental data: US20070271620A1, “Animal model for type II diabetes mellitus and Syndrome X and methods and uses thereof” (priority 2005, published 2007)
# Where “and” joins values, the source holds several entries; their conditions need not be identical. Equal values may be shown once.
# Columns and labels:
# Type in all cases: in vivo, pig
# diabetic pigs = test: Plasma insulin response after a standard meal in diabetic pigs two and nine weeks after STZ infusion; settings: STZ 140 mg/kg infused for ten minutes, 25 diabetic pigs
# Protocol: After 24 hours fasting, a standard meal (523 kJ ME/kg BW^0.75) was fed to the pigs and blood was sampled up to 480 minutes after feeding). Pigs were studied two and nine weeks after streptozotocin (STZ) infusion (140 mg/kg for ten minutes). […] However, as judged by the severity of diabetes (quantified by the 24-hour urinary glucose excretion in relation to standard meal feeding), the recovery/regeneration/hypertrophy of beta-cells takes place in the first three to four weeks after STZ infusion and stops after that time period (see FIG. 6).
# [1] = tested on: cross-bred pigs (Yorkshire×Landrace); test: Fasting and postprandial plasma lipid profiles and postprandial insulin in STZ diabetic pigs
# Protocol: Fasting blood samples were taken before the start of hyperinsulinemic clamp experiments and postprandial blood samples were taken two to three hours after a morning meal in the week following a clamp study.
# Blood samples for determination of triglycerides and non-esterified fatty acids (NEFA) were collected in tubes containing EDTA (0.47 mol/L EDTA, 10 mL Venoject, Terumo, Leuven, Belgium) and immediately chilled at 0° C. on ice, and centrifuged at 4° C. for ten minutes at 3000 rpm. Plasma was stored, at −20° C. in four aliquots of 0.5 mL for further analyses.
# Concentrations of triglycerides, cholesterol and NEFA were measured using commercially available test kits (Boehringer Mannheim, Mannheim Germany; Human, Wiesbaden, Germany; and Wako Chemicals, Neuss, Germany, respectively).
# [2] = tested on: cross-bred pigs (Yorkshire×Landrace); test: 6,6-2H-glucose tracer kinetics (fasting Ra glucose, hepatic glucose production, whole body glucose uptake) in STZ diabetic pigs; settings: 130 mg STZ/kg
# Protocol: Protocol 1: fasting hepatic glucose production and whole body glucose uptake were studied with 6,6-^2H-glucose infusion in five normal and five STZ (130 mg/kg) diabetic pigs.
# Protocol 2: insulin-mediated hepatic glucose production and whole body glucose uptake were studied with the hyperinsulinemic (1 or 2 mU/kg/minute) euglycemic clamp technique in combination with 6,6-^2H-glucose infusion in six normal and seven STZ (130 mg/kg) diabetic pigs.
# After overnight fasting, a 6,6-^2H-glucose solution was administered as a prime—(72 mg) continuous (1.2 mg/minute) infusion for three hours in normal pigs. In diabetic pigs, 6,6-^2H-glucose was given as an adjusted prime— (216 mg) continuous (3.6 mg/minute) infusion for three hours (Koopmans et al., 1991). Isotopic steady-state conditions were achieved within 90 minutes after initiation of the tracer infusion and steady-state calculations were carried out during the last hour of the tracer infusion (t=120, 135, 150, 165 and 180 minutes). […]
# Blood samples for determination of 6,6-^2H-glucose enrichment, glucose and insulin were collected in heparinized tubes (150 USP. U. Lithium Heparin, 10 mL Venoject, Terumo, Leuven, Belgium) and immediately chilled at 0° C. on ice and centrifuged at 4° C. for ten minutes at 3000 rpm. […] Selected ion monitoring, data acquisition and quantitative calculations were performed using the HP Chemstation software. Glucose concentration was determined using the internal standard method (xylose was added as internal standard). The internal standard was monitored at m/z 145. Glucose was monitored at m/z 187 for glucose and m/z 189 for d2-glucose. Glucose enrichments were calculated by dividing the area of the m/z 189 peak and the m/z 187 peak and correcting for natural enrichments. Isotopic enrichment was calculated as tracer-to-tracee ratio after subtracting the isotopic enrichment of a background plasma sample. An aliquot of the 6,6-^2H-glucose infusate was analyzed for the isotope concentration to calculate the actual infusion rate for each infusion experiment. […]
# [3] = pigs, STZ 130 mg/kg, two to three hours after morning meal
smiles,measurement,setting,value
"CN(N=O)C(=O)N[C@H]1C(O)O[C@H](CO)[C@@H](O)[C@@H]1O (mixture of isomers) [STZ, streptozotocin]","Area under the curve for the plasma insulin response (0-480 minutes after meal), nine weeks compared to two weeks after STZ infusion",diabetic pigs,two-fold larger
same,Postprandial plasma insulin,"[1]; STZ diabetic pigs, two to three hours after feeding, detection limit",~1 mU/L
same,Fasting cholesterol and NEFA concentrations compared to normal pigs,"[1]; pigs, STZ 130 mg/kg",did not differ
same,Fasting plasma NEFA,"[1]; pigs, STZ 130 mg/kg",0.9 ± 0.3 mmol/L
same,Fasting plasma cholesterol,"[1]; pigs, STZ 130 mg/kg",2.1 ± 0.2 mmol/L
same,Fasting plasma triglyceride elevation compared to normal pigs,"[1]; pigs, STZ 130 mg/kg",five-fold
same,Fasting plasma triglycerides,"[1]; pigs, STZ 130 mg/kg",1.0 mmol/L and 1.0 ± 0.3 mmol/L
same,Postprandial plasma NEFA elevation compared to normal pigs,"[1]; pigs, STZ 130 mg/kg",seven-fold
same,Postprandial plasma cholesterol elevation compared to normal pigs,"[1]; pigs, STZ 130 mg/kg",1.3 fold
same,Postprandial plasma triglycerides elevation compared to normal pigs,"[1]; pigs, STZ 130 mg/kg",four-fold
same,Postprandial plasma NEFA,[1]; [3],1.5 ± 0.5 mmol/L
same,Postprandial plasma cholesterol,[1]; [3],2.3 ± 0.2 mmol/L
same,Postprandial plasma trigylcerides,[1]; [3],1.2 mmol/L and 1.2 ± 0.3 mmol/L
same,Fasting Ra glucose compared to normal pigs,[2],approximately two-fold greater
same,Insulin-inhibited hepatic glucose production versus normal pigs,[2],two-fold greater
same,Insulin-stimulated whole body glucose uptake versus normal pigs,[2],three-fold lower
